{"source": "patent US20250346556A1", "about": "“IMPROVEMENTS IN OR RELATING TO ORGANIC COMPOUNDS” (Givaudan SA, priority 2019, published 2025)", "assay_type_in_all_cases": "in vivo", "key": {"[1]": {"experiment": "Taste evaluation, comparison with further derivatives, by 5 trained panellists", "settings": "20 ppm in aqueous NaCl solution (0.5% by weight); compared with 20 ppm compound Ia", "method": "An aqueous NaCl solution (0.5% by weight) was prepared. To this base was added: • a) 20 ppm of the compound Ia (sample 7a); • b) 20 ppm of the compound Ib (sample 7b); • c) 20 ppm of the compound Ic (sample 7c).\nThe tastes of the three samples 7a, 7b and 7c have been evaluated by 5 trained panellists."}, "[2]": {"experiment": "Taste evaluation of amide ester analogues by four experienced tasters", "settings": "20 ppm in aqueous NaCl (0.5% by weight) and MSG (0.05% by weight)", "method": "An aqueous solution of NaCl (0.5% by weight) and MSG (0.05% by weight) was prepared. To this base was added: • a) 20 ppm of the mixture of the compound (Id+Ie) in a ratio 1:2 (sample 8a); • b) 20 ppm of the compound If (sample 8b).\nA group of four experienced tasters compared the samples 8a and 8b with the pure base."}, "[3]": {"experiment": "Taste evaluation, comparison with MSG, by 5 trained panellists", "method": "An aqueous NaCl solution (0.5% by weight) was prepared. To this base was added: • a) 30 ppm of the compound Ia (sample 6a); • b) 200 ppm of MSG (sample 6b, benchmark).\nThe tastes of the two samples 6a and 6b have been evaluated by 5 trained panellists. They were asked to rate the intensity of sample 6a as difference to sample 6b and to describe the overall effect. Typically, the following descriptors are used to describe the effect: umami, salty, bitter, overall sweet."}}, "data": [{"molecule": "C/C=C(\\C)C(=O)NCCCCNC(=O)/C=C/c1ccc(OC)cc1", "note": "[compound Ib, (E)-N-(4-((E)-3-(4-methoxyphenyl)acrylamido)butyl)-2-methylbut-2-enamide]", "values": [{"measurement": "taste description in comparison to sample 7a", "setting": "[1]", "value": "more umami, stronger and more lingering, more sweet, but having an off note, animalic, floral sweet"}]}, {"molecule": "C/C=C(\\C)C(=O)NCCCCOC(=O)C=Cc1ccccc1", "note": "[compound If, 4-((E)-2-methylbut-2-enamido)butyl cinnamate]", "values": [{"measurement": "additional taste description", "setting": "[2]", "value": "a pleasant taste experience"}, {"measurement": "umami compared with the pure base", "setting": "[2]; four tasters, unanimous", "value": "more umami than the base"}]}, {"molecule": "C/C=C(\\C)C(=O)NCCCCNC(=O)C=Cc1ccccc1", "note": "[compound Ia, (E)-N-(4-cinnamamidobutyl)-2-methylbut-2-enamide]", "values": [{"measurement": "overall preference", "setting": "[3]; 30 ppm in 0.5% NaCl versus 200 ppm MSG (sample 6b)", "value": "preferred over sample 6b"}, {"measurement": "umami on bitter level versus benchmark", "setting": "[3]; 30 ppm in 0.5% NaCl versus 200 ppm MSG (sample 6b, benchmark)", "value": "a little higher than benchmark"}, {"measurement": "taste description", "setting": "[3]; 30 ppm in aqueous NaCl solution (0.5% by weight), 5 trained panellists", "value": "umami, brothy and longlasting"}]}, {"molecule": "C/C=C(\\C)C(=O)NCCCCNC(=O)c1ccc(OC)cc1", "note": "[compound Ic, (E)-4-methoxy-N-(4-(2-methylbut-2-enamido)butyl)benzamide]", "values": [{"measurement": "taste description in comparison to sample 7a", "setting": "[1]", "value": "more umami and cleaner umami than sample 7a"}]}]}
